Patent publication US20030040436A1 (priority 2000, published 2003)

Key:
moss = experiment: Control of moss on greenhouse wall and ground; conditions: 5% (w/v), sprayed to run-off, one application, within 24 hours
Phormidium algae [1] = experiment: Filter paper assay of algicidal activity; format: cell-based; conditions: for Zone of Inhibition: observed 4 days after start
Description: Briefly, the filter paper assay is designed to approximate an environment such as that found on a golf course, where algal pests can be particularly damaging. Blended fragment suspensions of Phormidium algae were passed through a coarse Whatman filter paper circle to collect the algal cells. The filter paper was then placed in a large Petri dish containing moist sand. The desired concentration of 10% benzyl benzoate formulation (0.8, 0.3 and 0.1% (w/v) final concentration) was placed on marked areas of the algae field to determine toxic effects. Observations were made 4 days after the test was initiated and were compared to control experiments using the known pesticide Daconil.

[2] = system: Tiffway hybrid bermudagrass and SR1020 bentgrass; experiment: Phytotoxic field testing on grass test surfaces; format: in vivo; conditions: highest concentration (0.8% w/v), one square foot test surfaces
Description: This formulation was applied to two grass species, Tiffway hybrid bermudagrass and SR1020 bentgrass. One square foot test surfaces of each grass type were used. The test formulation was applied to test surfaces in dilutions corresponding to 0.8, 0.3, and 0.1% (w/v) benzyl benzoate.

Phormidium algae [3] = experiment: Field test, spray application: control of algae on turfgrass; format: in vivo; conditions: single spray application, several days following
Description: (§1) Each of the three concentrations and negative controls without benzyl benzoate were applied to one square foot of SRI 020 bentgrass or Tiffway hybrid bermudagrass, which was naturally infected with Phormidiumalgae, with a single spray application. The turfgrass was examined empirically for control of the algae as well and toxicity to the grass.

[4] = system: SRI 020 bentgrass or Tiffway hybrid bermudagrass; experiment: Field test, spray application: toxicity to the grass; format: in vivo, SRI 020 bentgrass; Tiffway hybrid bermudagrass; conditions: all concentrations tested (0.8, 0.3, 0.1% w/v), single spray application
Description: as §1

Phormidium algae [5] = experiment: Well-plate assay of algicidal activity; conditions: for Lethality: 24 hours under fluorescent light
Description: Liquid cultures of Phormidiumalgae were homogenized into individual cells in a standard laboratory blender apparatus. One hundred fifty μl of the homogenized algal suspension were added to the wells of 96-well assay plates using multitip-transfer pipettes. To each well, 150 μl of various dilutions of the test formulation were added, such that final concentrations of bcnzyl benzoate in the test wells were 0.8%, 0.3%, and 0.1%. The plates were allowed to incubation under fluorescent light for 24 hours.

Structure (SMILES)	phytotoxicity to moss (moss)	Zone of Inhibition (Phormidium algae [1]; 0.1% (w/v) benzyl benzoate)	killing Phormidium (Phormidium algae [1]; 0.3% (w/v) benzyl benzoate)	Zone of Inhibition (Phormidium algae [1]; 0.3% (w/v) benzyl benzoate)	killing Phormidium (Phormidium algae [1]; 0.8% (w/v) benzyl benzoate)	Zone of Inhibition (Phormidium algae [1]; 0.8% (w/v) benzyl benzoate)	phytotoxicity [2]	algae control (Phormidium algae [3]; 0.3% (w/v))	algae control (Phormidium algae [3]; 0.8% (w/v))	phytotoxic effect (chemical burn) on the two grass species [4]	Comments (efficacy compared to Daconil) (Phormidium algae [5]; 0.1% benzyl benzoate)	Lethality (Phormidium algae [5]; 0.1% benzyl benzoate final concentration)	Comments (efficacy compared to Daconil) (Phormidium algae [5]; 0.3% benzyl benzoate)	Lethality (Phormidium algae [5]; 0.3% benzyl benzoate final concentration)	Comments (efficacy compared to Daconil) (Phormidium algae [5]; 0.8% benzyl benzoate)	Lethality (Phormidium algae [5]; 0.8% benzyl benzoate final concentration)
CCCCCCC(C=O)=Cc1ccccc1 [HCA, α-hexyl cinnamic aldehyde, reference compound]	phytotoxic to moss															
O=C(OCc1ccccc1)c1ccccc1 [benzyl benzoate]		no	very effective	yes	very effective	yes	Only small signs of phytotoxicity	significant level of control	most effective algae control	minimal phytotoxic effect	Same efficacy as	no	Superior to Daconil	yes	Superior to Daconil	yes
O=C(OCc1ccccc1)c1ccccc1O [benzyl salicylate]	phytotoxic to moss															
